Measurements as given in patent publication US12509429B2, “Hydroxybenzamide derivatives and methods of use in treating diabetes” (THE BOARD OF REGENTS OF THE UNIVERSITY OF OKLAHOMA, priority 2022, dated 2025).
“Also recorded” adds a separate entry of the source.

What was measured:
Format in all cases: cell-based, rat
INS-1 cells = assay: Cell viability assay: protection of INS-1 cells from tunicamycin (Tm)-induced loss of viability (CellTiter-Glo, intracellular ATP); details: Rattus norvegicus, INS1
Protocol: INS-1 cells were resuspended in RPMI 1640 medium containing 10% FBS and seeded at 5×10^3 cells/well in a 384-well plate. After overnight 24 h incubation, compounds were added to the wells at the indicated concentration using a pin-transfer robot (PerkinElmer). Tm in RPMI 1640 medium containing 10% FBS was then added at a final concentration of 0.15 μg/mL. After 72 h, the medium was removed and 20 μL of CellTiter-Glo reagent (Promega) was added. Luminescence was measured 10 min later using a Synergy Neo2 plate reader (Biotek).
Hydroxy benzamide (HBA) derivatives were synthesized based on various scaffolds and evaluated for their viability of rat INS-1 β cells in the presence of tunicamycin (Tm), a potent ER stress inducer that inhibits N-linked glycosylation of proteins. The maximum activities and the concentrations that reach half-maximal activity (EC50) of the compounds were evaluated by the degree of increase in viability of INS-1 cells co-treated with the compounds in the presence of Tm compared with Tm treatment alone.

INS-1 β cells [1] = assay: Western blotting of cleaved caspase-3 and PARP (Tm-induced apoptosis); details: INS-1 cells, Tm 0.3 μg/ml, 24 h, co-treatment at 1 and 5 μM, Western blot
Protocol: INS-1 cells were treated with or without Tm (0.3 μg/ml) in the presence of WO3i at indicated concentrations or DMSO for indicated times. Cleaved caspase-3 and PARP were determined by Western blotting. GADPH was used as a loading control. The data shown are representative of 3 independent experiments.
INS-1 cells cultured in 60-mm dishes were washed with PBS and lysed with lysis buffer (Cell Signaling Technology, Danvers, MA) containing protease and phosphatase inhibitors (Thermo). Aliquots of 20 μg total protein were separated on 10% SDS-PAGE gels (Life Technologies) and transferred to PVDF membranes (Life Technologies). The membranes were probed with primary antibodies followed by the appropriate HRP-conjugated secondary antibodies. Blots were then developed using Pierce ECL Western Blotting Substrate (cat no 32106). The primary antibodies and dilutions used were: cleaved caspase 3 (1:1000, 9661, Cell Signaling Technology, MA, USA), and PARP (1:1000, 9542L, Cell Signaling Technology), and GAPDH (1:1000, SC-32233, Santa Cruz Biotechnology). Secondary antibodies used: goat anti rabbit IgG and goat anti-mouse IgG, 1:5000; Santa Cruz Biotechnology, Santa Cruz, CA).
To determine whether the increase in cell viability following treatment with WO3i was caused by a suppression of apoptotic cell death, levels of cleaved caspase-3 and cleaved PARP were assessed by Western blotting. […] However, upon severe ER stress, caspase 3 undergoes proteolytic cleavage to form the active enzyme, which in turns cleaves PARP, to trigger apoptotic cell death.

INS-1 β cells [2] = assay: Live-cell phase-contrast images of INS-1 cells under ER stress; details: Tm 0.5 μg/mL, compound 5 μM, 24 h, phase-contrast/bright field
Protocol: INS-1 cells were treated with or without Tm (0.5 μg/mL) in the presence of WO3i (5 μM) or DMSO (0.1%) for 24 h, and live-cell phase-contrast images were acquired (magnification 10×).

CHOP mRNA = assay: qRT-PCR of Tm-induced CHOP mRNA expression in INS-1 cells; details: compound 5 μM, Tm 0.5 μg/ml, 4 h and 8 h, normalized to cyclophilin A, listed as WO3i
Protocol: CHOP mRNA levels by qRT-PCR in INS-1 cells treated for 4 h (A) and 8 h (B) with WO3i at 5 μM in the presence or absence of Tm (0.5 μg/ml). Data are presented as the fold change after normalized to cyclophilin A mRNA.
(§1) Total RNA was extracted from INS-1 cells using TRIzol reagent (Invitrogen, Carlsbad, CA) according to the manufacturer's protocol. 2 μg of total RNA was reverse transcribed using Superscript IV kit (Invitrogen). Real-time PCR was performed with a CFX96 Real-Time PCR detection system (Bio-Rad, CA) using SYBR Select Master Mix (Applied Biosystems, CA).
(§2) Relative mRNA levels were normalized against Cyclophilin A and were determined by ΔΔCt calculated from the difference in ΔCt values between the target gene and Cyclophilin A with and without treatment, based on comparative CT (cycle threshold) method.

[3] = system: ATF6 activation (BiP mRNA); assay: qRT-PCR of BiP mRNA (Tm-induced ATF6 activation) in INS-1 cells; details: compound 5 μM, Tm 0.5 μg/ml, 4 h and 8 h, normalized to cyclophilin A, listed as WO3i
Protocol: BiP mRNA levels by qRT-PCR in INS-1 cells treated for 4 h (A) and 8 h (B) with WO3i at 5 μM in the presence or absence of Tm (0.5 μg/ml). Data are presented as the fold change after normalized to cyclophilin A mRNA.
as §1, §2

[4] = system: IRE1α activation (Xbp1-s mRNA); assay: qRT-PCR of spliced Xbp1 mRNA (Tm-induced IRE1α activation) in INS-1 cells; details: compound 5 μM, Tm 0.5 μg/ml, 4 h and 8 h, normalized to cyclophilin A, listed as WO3i
Protocol: Spliced Xbp1 (Xbp1-s) mRNA levels by qRT-PCR in INS-1 cells treated for 4 h (A) and 8 h (B) with WO3i at 5 μM in the presence or absence of Tm (0.5 μg/ml). Data are presented as the fold change after normalized to cyclophilin A mRNA.
as §1, §2

[5] = system: PERK activation (ATF4 mRNA); assay: qRT-PCR of ATF4 mRNA (Tm-induced PERK activation) in INS-1 cells; details: compound 5 μM, Tm 0.5 μg/ml, 4 h and 8 h, normalized to cyclophilin A, listed as WO3i
Protocol: ATF4 mRNA levels by qRT-PCR in INS-1 cells treated for 4 h (A) and 8 h (B) with WO3i at 5 μM in the presence or absence of Tm (0.5 μg/ml). Data are presented as the fold change after normalized to cyclophilin A mRNA.
as §1, §2

O=C(NCc1ccc(C(F)(F)F)cc1)c1cccc(O)c1 [Compound 3i, 3-Hydroxy-N-(4-(trifluoromethyl)benzyl)benzamide]
Emax (INS-1 cells; % rescue from Tm (0.15 μg/mL)-induced reduction of INS-1 cell viability (intracellular ATP), Tm alone 0%, DMSO without Tm 100%, 72 h, read-out: Maximum % of Protection): 100%
EC50 (INS-1 cells; INS-1 cell viability, Tm 0.15 μg/mL, ten 2-fold serial titration points, GraphPad Prism): 190 nM
Tm-induced apoptosis: cleavage of caspase-3 and PARP (INS-1 β cells [1]): suppresses
Tm-induced apoptosis: cleavage of caspase-3 and PARP (INS-1 β cells [1]; listed as WO3): almost completely abolished
Tm-induced apoptosis: cleavage of caspase-3 and PARP (INS-1 β cells [1]; listed as WO3M): suppresses
Tm-induced apoptosis: cleavage of caspase-3 and PARP (INS-1 β cells [1]; listed as WO3i): suppresses
Preservation of INS-1 β cell viability under ER stress (images) (INS-1 β cells [2]; listed as WO3M): significantly more cells were preserved
Preservation of INS-1 β cell viability under ER stress (images) (INS-1 β cells [2]; listed as WO3i): preserves the INS-1 β cell viability
Tm-induced CHOP mRNA expression (CHOP mRNA): markedly diminished; also recorded: suppresses
Tm-induced BiP mRNA level (ATF6 activation) [3]: completely suppressed; also recorded: suppresses
Tm-induced spliced Xbp1 (Xbp1-s) mRNA level (IRE1α activation) [4]: eliminated; also recorded: suppresses
Tm-induced ATF4 mRNA level (PERK activation) [5]: abolished; also recorded: suppresses
